Assay [1] concerns the target CDK2/cyclin A (Homo sapiens, UniProt P24941). The assay is described as follows: Kinase assay CDK2/cyclin A. Type of assay: biochemical. The method, boiled down:
(§1)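 Radiometric kinase assays with recombinant enzymes (2-4 μg) and polypeptide substrates in β-glycerophosphate/MOPS/EGTA buffer, pH 7.4. Started with 15 mM MgCl2 + 100 μM ATP containing [γ-32P]-ATP, incubated at 30° C; incorporated 32P captured on filterplates and counted. Compounds diluted in 10% DMSO assay buffer.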

For assay [2], the target named is CDK2/cyclin E (Homo sapiens, UniProt P24941). Briefly: Kinase assay CDK2/cyclin E. It is filed as biochemical. The method, boiled down: as §1
Assay [3] addresses ERK2 (extracellular-signal-regulated kinase 2) (Homo sapiens, UniProt P28482). The assay is described as follows: Kinase assay ERK2. It is filed as biochemical. Conditions: Table 3 selectivity panel; read-out: Kinase specificity IC50 ERK2. The protocol:
(§2) Kinase assays. […] This was achieved by measurement of incorporation of radioactive phosphate from ATP into appropriate polypeptide substrates. Recombinant protein kinases and kinase complexes were produced or obtained commercially. Assays were performed using 96-well plates and appropriate assay buffers (typically 25 mM β-glycerophosphate, 20 mM MOPS, 5 mM EGTA, 1 mM DTT, 1 mM […], pH 7.4), into which were added 2-4 μg of active enzyme with appropriate substrates. The reactions were initiated by addition of Mg/ATP mix (15 mM MgCl2+100 μM ATP with 30-50 kBq per well of [γ-^32P]-ATP) and mixtures incubated as required at 30° C. Reactions were stopped on ice, followed by filtration through p81 filterplates or GF/C filterplates (Whatman Polyfiltronics, Kent, UK). After washing 3 times with 75 mM aq orthophosphoric acid, plates were dried, scintillant added and incorporated radioactivity measured in a scintillation counter (TopCount, Packard Instruments, Pangbourne, Berks, UK). Compounds for kinase assay were made-up as 10 mM stocks in DMSO and diluted into 10% DMSO inrassay buffer.

The target of assay [4] is PKCα (protein kinase C α) (Homo sapiens, UniProt P17252). Briefly: Kinase assay PKCα. Type of assay: biochemical. Conditions: Table 3 selectivity panel; read-out: Kinase specificity IC50 PKCα. The protocol: as §2
Assay [5] deals with Abl (Ableson tyrosine kinase) (Homo sapiens, UniProt P00519). Briefly: Kinase assay Abl. It is filed as biochemical. The note with it: Table 3 selectivity panel; read-out: Kinase specificity IC50 Abl. As for the experimental part:
as §2

The subject of assay [6] is MCF-7. Briefly: 72-h MTT cytotoxicity assay MCF-7. Type of assay: cell-based. Conditions: Homo sapiens, MCF7, 72 h; Table 5; Breast. As for the experimental part:
(§3) MTT cytotoxicity assay. […] Standard 72-h MTT (thiazolyl blue; 3-[4,5-dimethylthiazol-2-yl]-2,5-diphenyltetrazolium bromide) assays were performed (Haselsberger, K.; Peterson, D. C.; Thomas, D. G.; Darling, J. L. Anti Cancer Drugs 1996, 7, 331-8; Loveland, B. E.; Johns, T. G.; Mackay, I. R.; Vaillant, F.; Wang, Z. X.; Hertzog, P. J. Biochemistry International 1992, 27, 501-10). In short: cells were seeded into 96-well plates according to doubling time and incubated overnight at 37° C. Test compounds were made up in DMSO and a 1/3 dilution series prepared in 100 μL cell media, added to cells (in triplicates) and incubated for 72 ho at 37° C. MTT was made up as a stock of 5 mg/mL in cell media and filter-sterilised. Media was removed from cells followed by a wash with 200 μL PBS.
(§4) MTT solution was then added at 20 μL per well and incubated in the dark at 37° C. for 4 h. MTT solution was removed and cells again washed with 200 μL PBS. MTT dye was solubilised with 200 μL per well of DMSO with agitation.

Assay [7] concerns Lovo. The assay is described as follows: 72-h MTT cytotoxicity assay Lovo. It is filed as cell-based. The note with it: Homo sapiens, Table 5, Colon. As for the experimental part:
as §3, §4

Assay [8] relates to HCT-116. The assay is described as follows: 72-h MTT cytotoxicity assay HCT-116. Type of assay: cell-based. The note with it: Homo sapiens, HCT-116, 72 h; Table 5; Colon. The protocol: as §3, §4
Background: Tetrazolium assays rely on reduction of a dye to a coloured formazan, in cell work by metabolically active cells.

The subject of assay [9] is AGS. The assay is described as follows: 72-h MTT cytotoxicity assay AGS. It is filed as cell-based. The note with it: Homo sapiens, Table 5, Gastric adenocarcinoma. The protocol: as §3, §4
Assay [10] deals with HL60. The assay is described as follows: 72-h MTT cytotoxicity assay HL60. Type of assay: cell-based. The note with it: Homo sapiens, HL-60, 72 h; Table 5; Promyelocytic leukaemia. The protocol: as §3, §4
Assay [11] relates to nci-H460. Briefly: 72-h MTT cytotoxicity assay nci-H460. Type of assay: cell-based. The note with it: Homo sapiens, NCI-H460, 72 h; Table 5; Lung. The protocol:
as §3, §4

The test system of assay [12] is SJSA-1. The assay is described as follows: 72-h MTT cytotoxicity assay SJSA-1. Type of assay: cell-based. Conditions: Homo sapiens, SJSA-1, 72 h; Table 5; Osteogenic sarcoma. The protocol:
as §3, §4

Assay [13] deals with Hacat. The assay is described as follows: 72-h MTT cytotoxicity assay Hacat. Conditions: Homo sapiens, Table 5, Skin keratinocytes. It is filed as cell-based. The protocol:
as §3, §4

In assay [14] the test system is Messa-Dx5. The assay is described as follows: 72-h MTT cytotoxicity assay Messa-Dx5. Type of assay: cell-based. Conditions: Homo sapiens, MES-SA/Dx5, 72 h; Table 5; Uterine. As for the experimental part:
as §3, §4

Assay [15] deals with all transformed cells. Briefly: 72-h MTT cytotoxicity assay, summary over all transformed cells. It is filed as cell-based. The note with it: Homo sapiens. As for the experimental part: as §3, §4
Assay [16] concerns IMR-90. Briefly: 72-h MTT cytotoxicity assay IMR-90. Type of assay: cell-based. The note with it: Homo sapiens, IMR-90, 72 h; Table 5; Foetal lung fibroblast (non-transformed). As for the experimental part:
as §3, §4

The mark [17] stands for this setting: Table 2, read-out: Kinase Inhibition IC50 CDK2 cyclin A.
Setting [18] is: Table 3 selectivity panel, read-out: Kinase specificity IC50 CDK2/A.
The mark [19] stands for this setting: Table 2, read-out: Kinase Inhibition IC50 CDK2 cyclin E.
The mark [20] stands for this setting: Table 3 selectivity panel, read-out: Kinase specificity IC50 CDK2/E.
The mark [21] stands for this setting: Table 5, average over transformed cell lines, read-out: 72-h MTT IC50 Average (all transformed cells).
Setting [22] is: Table 5, median over transformed cell lines, read-out: 72-h MTT IC50 Median (all transformed cells).

Like-named read-outs stand apart in the source and are kept apart here.

The record followed here is patent publication US7432260B2, “Pyrimidine compounds” (Cyclacel Limted, priority 2002, dated 2008).

Abl (Ableson tyrosine kinase), sequence (P00519 whole entry, species assumed): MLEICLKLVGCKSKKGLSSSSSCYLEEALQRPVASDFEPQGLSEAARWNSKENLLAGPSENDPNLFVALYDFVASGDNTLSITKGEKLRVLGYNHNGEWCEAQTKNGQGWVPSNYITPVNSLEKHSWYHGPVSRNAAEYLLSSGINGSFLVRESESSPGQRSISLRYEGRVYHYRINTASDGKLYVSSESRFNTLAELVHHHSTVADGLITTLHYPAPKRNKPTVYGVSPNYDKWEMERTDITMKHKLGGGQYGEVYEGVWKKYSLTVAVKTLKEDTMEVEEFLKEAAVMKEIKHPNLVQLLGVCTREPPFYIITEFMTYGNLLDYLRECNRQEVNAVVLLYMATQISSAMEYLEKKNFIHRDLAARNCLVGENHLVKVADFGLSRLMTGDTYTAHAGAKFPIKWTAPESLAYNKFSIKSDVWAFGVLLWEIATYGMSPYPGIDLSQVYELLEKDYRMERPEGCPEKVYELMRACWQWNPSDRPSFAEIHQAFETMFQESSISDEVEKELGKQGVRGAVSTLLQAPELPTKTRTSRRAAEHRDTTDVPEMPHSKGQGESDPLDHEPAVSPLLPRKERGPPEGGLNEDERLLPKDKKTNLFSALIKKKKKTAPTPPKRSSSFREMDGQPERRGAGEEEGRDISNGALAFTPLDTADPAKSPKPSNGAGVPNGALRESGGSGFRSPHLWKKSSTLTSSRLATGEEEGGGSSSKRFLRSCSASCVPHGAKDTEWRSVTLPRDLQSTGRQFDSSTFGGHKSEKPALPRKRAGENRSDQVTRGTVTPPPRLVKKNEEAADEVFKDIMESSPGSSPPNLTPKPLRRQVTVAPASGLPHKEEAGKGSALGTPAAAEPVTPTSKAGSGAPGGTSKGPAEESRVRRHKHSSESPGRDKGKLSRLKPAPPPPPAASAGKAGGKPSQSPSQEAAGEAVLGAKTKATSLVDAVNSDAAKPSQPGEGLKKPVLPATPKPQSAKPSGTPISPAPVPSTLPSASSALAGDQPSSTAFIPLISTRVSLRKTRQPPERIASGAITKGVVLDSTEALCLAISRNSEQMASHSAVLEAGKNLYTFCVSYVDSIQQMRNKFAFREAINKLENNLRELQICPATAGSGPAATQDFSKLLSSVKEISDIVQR
ERK2 (extracellular-signal-regulated kinase 2), sequence (P28482 whole entry, species assumed): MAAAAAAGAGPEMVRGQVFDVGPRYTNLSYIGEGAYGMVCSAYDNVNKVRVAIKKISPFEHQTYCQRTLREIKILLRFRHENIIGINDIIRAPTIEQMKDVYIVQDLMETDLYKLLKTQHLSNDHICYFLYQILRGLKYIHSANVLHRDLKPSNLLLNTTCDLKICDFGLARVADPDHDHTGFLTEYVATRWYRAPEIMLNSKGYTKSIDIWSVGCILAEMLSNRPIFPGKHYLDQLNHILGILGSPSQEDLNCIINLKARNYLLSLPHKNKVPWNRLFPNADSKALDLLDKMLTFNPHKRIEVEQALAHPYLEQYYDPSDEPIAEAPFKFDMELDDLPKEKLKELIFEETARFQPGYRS

With `CC[C@@H](N)C(=O)Nc1nc(C)c(-c2ccnc(Nc3cccc([N+](=O)[O-])c3)n2)s1` [Compound 16, (2R)-2-Amino-N-{4-methyl-5-[2-(3-nitro-phenylamino)-pyrimidin-4-yl]-thiazol-2-yl}-butyramide], the IC50 in assay [1] (setting [17]) was 650 nM; in assay [1] (setting [18]), 650 nM; in assay [2] (setting [19]), 320 nM; in assay [2] (setting [20]), 350 nM; in [3], above 100000 nM; in assay [4], 53000 nM. Moreover, the IC50 in assay [5] came to 1500 nM; in [6], 390 nM; in [7] it was 300 nM; in assay [8], 300 nM; in assay [9], 300 nM; in [10] it was 600 nM. Further, the IC50 amounted to 300 nM in assay [11]; 1000 nM in assay [12]; 1100 nM in assay [13]; 100 nM in assay [14]; 600 nM in [15] (setting [21]); 400 nM in assay [15] (setting [22]). Further, the IC50 in assay [16] was 1700 nM.

On to `Cc1nc(N)sc1-c1ccnc(Nc2ccc(N3CCOCC3)cc2)n1` [Compound 1, [4-(2-Amino-4-methyl-thiazol-5-yl)-pyrimidin-2-yl]-(4-morpholin-4-yl-phenyl)-amine], for which the IC50 in assay [4] was above 100000 nM; in assay [6], above 5000 nM; in [7] it was 900 nM; in [8], 900 nM; in [9], 1100 nM; in assay [10], 1800 nM. The IC50 in [11] is 200 nM; in [12] it was above 5000 nM; in [13], 1100 nM; in [14] it was 200 nM; in [15] (setting [21]), 1100 nM; in [15] (setting [22]), 1000 nM. Further, the IC50 in [16] is above 5000 nM.

Turning to `Cc1nc(NC(=O)[C@H](N)[C@@H](C)O)sc1-c1ccnc(Nc2cccc([N+](=O)[O-])c2)n1` [Compound 15, (2R,3R)-2-Amino-3-hydroxy-N-{4-methyl-5-[2-(3-nitro-phenylamino)-pyrimidin-4-yl]-thiazol-2-yl}-butyramide], the IC50 in assay [1] (setting [17]) was 850 nM; in assay [1] (setting [18]), 400 nM; in [2] (setting [19]) it was 130 nM; in [2] (setting [20]), 150 nM; in [3], above 100000 nM; in [4], above 100000 nM. For the same molecule, the IC50 in assay [5] came to 760 nM; in [6] it was 900 nM; in assay [7], 700 nM; in assay [8], 600 nM; in [9], 1100 nM; in [10] it was 2200 nM. The IC50 is 1200 nM in assay [11]; 1900 nM in assay [12]; 1500 nM in assay [13]; 400 nM in [14]; 1200 nM in assay [15] (setting [21]); 900 nM in assay [15] (setting [22]). In addition, the IC50 in [16] was found to be 2500 nM.

Take `CNc1nc(C)c(-c2ccnc(Nc3ccc(N4CCN(Cc5ccccc5)CC4)cc3)n2)s1` [Compound 11, [4-(4-Benzyl-piperazin-1-yl)-phenyl]-[4-(4-methyl-2-methylamino-thiazol-5-yl)-pyrimidin-2-yl]-amine]: the IC50 is 2200 nM in [1] (setting [17]); 2200 nM in assay [1] (setting [18]); 260 nM in [2] (setting [19]); 260 nM in assay [2] (setting [20]); above 100000 nM in assay [3]; above 100000 nM in [4]. Further, the IC50 in assay [5] was found to be 72000 nM; in [6] it was 1900 nM; in [7], 2000 nM; in [8], 600 nM; in [9], 1300 nM; in assay [10], 1700 nM. Also, the IC50 in assay [11] was 700 nM; in assay [12], 4300 nM; in [13], 1000 nM; in [14], 200 nM; in assay [15] (setting [21]) it was 1600 nM; in assay [15] (setting [22]), 1100 nM. In addition, the IC50 in assay [16] is 31000 nM.

Regarding `CNc1nc(C)c(-c2ccnc(Nc3ccc(N4CCOCC4)cc3)n2)s1` [Compound 3, [4-(2-N-Methylamino-4-methyl-thiazol-5-yl)-pyrimidin-2-yl]-(4-morpholinophenyl)-amine], the IC50 was above 100000 nM in [3], above 100000 nM in assay [4] and 50000 nM in assay [5].

Turning to `Cc1nc(C)c(-c2ccnc(Nc3ccc(NC(=O)CN4CCCC4)cc3)n2)s1` [Compound 53, N-{4-[4-(2,4-Dimethyl-thiazol-5-yl)-pyrimidin-2-ylamino]-phenyl}-2-pyrrolidin-1-yl-acetamide], the IC50 was found to be 5300 nM in assay [1] (setting [17]) and 520 nM in assay [2] (setting [19]).
